Experiments:
[1] = Overall summary of solid form stability; conditions: compared with the other identified salt forms
Description: Overall Summary. […] The amorphous form is considered for development purposes to be unstable for further development.

[2] = VH-XRPD analysis / transitions of forms at varying relative humidity; format: physicochemical
Description: FIG. 19. The sample then reverts to the original form upon reaching 30% RH. […] Transitions of Forms of Compound A at varying RH.

[3] = Anti-solvent addition; format: physicochemical
Experimental: Anti-solvent addition. A total of 12 anti-solvent addition experiments were carried out. […] The obtained precipitate was isolated for XRPD analysis.
Anti-solvent addition Compound A. A total of 14 anti-solvent addition experiments were carried out. […] The obtained precipitate was isolated for XRPD analysis.

[4] = Liquid vapor diffusion; format: physicochemical
Experimental: (§1) Liquid vapor diffusion. Liquid vapor diffusion experiments were conducted in different solvent systems. […] This solution was then placed into a 20-mL vial with 3 mL of corresponding anti-solvent. The 20-mL vial was sealed with a cap and kept at RT allowing sufficient time for organic vapor to interact with the solution. The precipitates were isolated for XRPD analysis.
as §1, with “diffusion Compound A.” for “diffusion.”

[5] = Slurry conversion experiments (XRPD of isolated solids); format: physicochemical
Experimental: Slurry conversion experiments were conducted at RT in different solvent systems. About 15˜20 mg of freebase starting material (Compound 1) was suspended in 0.5 mL of solvent in an HPLC vial. Solids were isolated for XRPD analysis after magnetically stirring at RT.
Slurry at 5°. Slurry conversion experiments were conducted at 5° C. in different solvent systems. About 15˜20 mg of freebase starting material (Compound 1) was suspended in 0.5 mL of solvent in an HPLC vial. Solids were isolated for XRPD analysis after magnetically stirring at 5° C.
Slurry at 50°. Slurry conversion experiments were conducted at 50° C. in different solvent systems. About 20 mg of freebase starting material (Compound 1) was suspended in 0.5 mL of solvent in an HPLC vial. Solids were isolated for XRPD analysis after magnetical stirring at 50° C.
Slurry at RT for Compound A. Slurry conversion experiments were conducted at RT in different solvent systems. […] Solids were isolated for XRPD analysis after magnetic stirring at RT.
Slurry at 50° for Compound A. Slurry conversion experiments were conducted at 50° C. in different solvent systems. […] Solids were isolated for XRPD analysis after magnetic stirring at 50° C.

[6] = Summary of polymorph screening experiments, total over all methods; format: physicochemical
Experimental: A total of 64 polymorph screening experiments were performed for freebase Compound 1 using the sample received as starting material through different crystallization methods. As a result, Form A was obtained from polymorph screening.
Results summarized in Table 40 were used to guide the solvent selection in polymorph screening of adipate.

[7] = Slow evaporation; format: physicochemical
Experimental: Slow evaporation. Slow evaporation experiments were performed under 10 conditions. Briefly, about 15˜20 mg of freebase starting material (810935-01-A) was dissolved in 0.5˜1.0 mL of solvent in a 3-mL glass vial.
Slow evaporation Compound A. Slow evaporation experiments were performed under seven conditions.

[8] = Slow cooling; format: physicochemical; conditions: adipate polymorph screening summary; Slow Cooling
Experimental: Slow cooling Compound A. Slow cooling experiments were conducted in four solvent systems. […] The suspension was then heated to 50° C., equilibrated for about 2 hr and filtered to a new vial using a seal membrane (PTFE, pore size of 0.45 μm). Filtrates were slowly cooled down to 5° C. at a rate of 0.1° C./min. The obtained solids were kept isothermal at 5° C. before isolation for XRPD analysis.

[9] = Solid vapor diffusion; format: physicochemical; conditions: adipate polymorph screening summary; Solid Vapor Diffusion
Experimental: Solid vapor diffusion Compound A. Solid vapor diffusion experiments were conducted using 12 different solvents. […] The 20-mL vial was sealed with a cap and kept at RT allowing solvent vapor to interact with the sample.

[10] = Moisture absorption observed during XRPD test; format: physicochemical
Experimental: Compound E Form A was obtained from acetone system. Limited solids were observed after stirring at 5° C. […] The suspension was transferred to −20° C., but limited solids were still observed. Anti-solvent (n-heptane) was added and the sample was transferred to 5° C. However, gel was obtained.

For `C=CC(=O)N1CCN(c2nc(OC[C@@H]3CCCN3C)nc3c(F)c(-c4nc(N)cc(C)c4C(F)(F)F)c(Cl)cc23)[C@@H](C)C1` [Compound A], the “Stability of the form for further development” value [1] was “most stable form”, the “RH at which sample reverts to the original form (VH-XRPD)” value [2] was 30 % RH and the “RH at which small changes appear in VH-XRPD” value ([2]; changes remain up until 80% RH) was 44-46 % RH.

For `C=CC(=O)N1CCN(c2nc(OC[C@@H]3CCCN3C)nc3c(F)c(-c4nc(N)cc(C)c4C(F)(F)F)c(Cl)cc23)[C@@H](C)C1` (atropisomer, axis not shown) [Compound 1, 1-((S)-4-((R)-7-(6-amino-4-methyl-3-(trifluoromethyl)pyridin-2-yl)-6-chloro-8-fluoro-2-(((S)-1-methylpyrrolidin-2-yl)methoxy)quinazolin-4-yl)-3-methylpiperazin-1-yl)prop-2-en-1-one], the Result ([3]; freebase polymorph screening summary, Anti-solvent Addition) was “Form A, amorphous, gel,”, the Result ([3]; freebase, solvent 1.4-Dioxane, anti-solvent H2O) was “Gel” and the Result ([3]; freebase, solvent ACN, anti-solvent n-Heptane) was “Form A (Low”. For the same molecule, the Result ([3]; freebase, solvent Acetone, anti-solvent n-Heptane) was “Form A (Low”, the Result ([3]; freebase, solvent Anisole, anti-solvent Cyclohexane) was “Gel” and the Result ([3]; freebase, solvent CPME, anti-solvent n-Heptane) was “Amorphous”. The Result ([3]; freebase, solvent DCM, anti-solvent Cyclohexane) was “Form A (Low”, the Result ([3]; freebase, solvent DMSO, anti-solvent H2O) was “Low crystallinity” and the Result ([3]; freebase, solvent EtOAc, anti-solvent n-Heptane) was “Amorphous”. The Result ([3]; freebase, solvent MEK, anti-solvent Cyclohexane) was “Gel”, the Result ([3]; freebase, solvent MeOH, anti-solvent H2O) was “Amorphous” and the Result ([3]; freebase, solvent THF, anti-solvent H2O) was “Form A (Low”. The Result ([3]; freebase, solvent Toluene, anti-solvent n-Heptane) was “Amorphous”, the Result ([4]; freebase polymorph screening summary, Liquid Vapor Diffusion) was “Form A, amorphous, gel, clear” and the Result ([4]; freebase, RT, solvent 1.4-Dioxane, anti-solvent n-Heptane) was “Gel”. For the same molecule, the Result ([4]; freebase, RT, solvent 2-Butanol, anti-solvent n-Heptane) was “Gel”, the Result ([4]; freebase, RT, solvent ACN, anti-solvent H2O) was “Form A” and the Result ([4]; freebase, RT, solvent Acetone, anti-solvent n-Pentane) was “Form A”. For the same molecule, the Result ([4]; freebase, RT, solvent Anisole, anti-solvent n-Pentane) was “Gel”, the Result ([4]; freebase, RT, solvent CPME, anti-solvent n-Pentane) was “Gel” and the Result ([4]; freebase, RT, solvent DMF, anti-solvent H2O) was “Clear solution”. The Result ([4]; freebase, RT, solvent DMSO, anti-solvent H2O) was “Amorphous”, the Result ([4]; freebase, RT, solvent EtOAc, anti-solvent n-Pentane) was “Gel” and the Result ([4]; freebase, RT, solvent IPAc, anti-solvent n-Heptane) was “Amorphous”. For the same molecule, the Result ([4]; freebase, RT, solvent THF, anti-solvent H2O) was “Form A (Low crystallinity)”, the Result ([4]; freebase, RT, solvent Toluene, anti-solvent n-Heptane) was “Gel” and the Result ([4]; freebase, RT, solvent Xylene, anti-solvent n-Pentane) was “Gel”. For the same molecule, the “Slurry conversion result (XRPD form)” value ([5]; 5° C., different solvent systems) was “Form A and amorphous were obtained”, the “Slurry conversion result (XRPD form)” value ([5]; 50° C., H2O) was “Amorphous” and the “Slurry conversion result (XRPD form)” value ([5]; 50° C., different solvent systems) was “amorphous was obtained”. For the same molecule, the “Slurry conversion result (XRPD form)” value ([5]; 50° C., n-Heptane) was “Amorphous”, the “Slurry conversion result (XRPD form)” value ([5]; RT, different solvent systems) was “Form A and amorphous were obtained” and the Result ([5]; freebase polymorph screening summary, Slurry at RT/5 °C/50 °C) was “Form A, amorphous, gel,”. For the same molecule, the Result ([5]; freebase slurry at 5° C., 2-MeTHF/n-Heptane, 1:3) was “Gel”, the Result ([5]; freebase slurry at 5° C., ACN) was “Form A” and the Result ([5]; freebase slurry at 5° C., DMAc/n-Heptane, 1:3) was “Gel”. The Result ([5]; freebase slurry at 5° C., DMF/H2O, 1:3) was “Amorphous”, the Result ([5]; freebase slurry at 5° C., Ethyl lactate/H2O, 1:3) was “Gel” and the Result ([5]; freebase slurry at 5° C., IPAc/n-Heptane, 1:3) was “Amorphous”. The Result ([5]; freebase slurry at 5° C., MIBK/n-Heptane, 1:3) was “Gel”, the Result ([5]; freebase slurry at 5° C., NMP/H2O, 1:4) was “Amorphous” and the Result ([5]; freebase slurry at 5° C., Xylene/n-Heptane, 1:3) was “Amorphous”. The Result ([5]; freebase slurry at RT, 1,4-Dioxane/H2O, 1:4) was “Amorphous”, the Result ([5]; freebase slurry at RT, ACN) was “Form A” and the Result ([5]; freebase slurry at RT, ACN/H2O, 1:1) was “Form A (Low crystallinity)”. For the same molecule, the Result ([5]; freebase slurry at RT, Acetone/H2O, 1:4) was “Form A”, the Result ([5]; freebase slurry at RT, Anisole/n-Heptane, 1:4) was “Gel” and the Result ([5]; freebase slurry at RT, Benzyl alcohol/n-Heptane, 1:4) was “Gel”. For the same molecule, the Result ([5]; freebase slurry at RT, CPME/Cyclohexane, 1:4) was “Amorphous”, the Result ([5]; freebase slurry at RT, DCM/n-Heptane, 1:4) was “Form A” and the Result ([5]; freebase slurry at RT, EtOAc/Cyclohexane, 1:4) was “Amorphous”. The Result ([5]; freebase slurry at RT, EtOH) was “Form A”, the Result ([5]; freebase slurry at RT, EtOH/H2O, 1:1) was “Form A” and the Result ([5]; freebase slurry at RT, IPA) was “Form A (Low crystallinity)”. For the same molecule, the Result ([5]; freebase slurry at RT, MEK/Cyclohexane, 1:4) was “Amorphous”, the Result ([5]; freebase slurry at RT, MTBE) was “Gel” and the Result ([5]; freebase slurry at RT, THF/n-Heptane, 1:4) was “Form A”. For the same molecule, the Result ([5]; freebase slurry at RT, Toluene/Cyclohexane, 1:4) was “Amorphous”, the Result ([6]; freebase polymorph screening summary) was “Form A, amorphous, gel, clear” and the Result ([7]; freebase polymorph screening summary, Slow Evaporation) was “Form A, amorphous, gel”. The Result ([7]; freebase, evaporation at RT, 2-MeTHF) was “Gel”, the Result ([7]; freebase, evaporation at RT, ACN) was “Form A” and the Result ([7]; freebase, evaporation at RT, Acetone) was “Form A”. The Result ([7]; freebase, evaporation at RT, DCM) was “Form A (Low crystallinity)”, the Result ([7]; freebase, evaporation at RT, EtOAc) was “Amorphous” and the Result ([7]; freebase, evaporation at RT, EtOH) was “Form A”. For the same molecule, the Result ([7]; freebase, evaporation at RT, IPAc) was “Gel”, the Result ([7]; freebase, evaporation at RT, MEK) was “Amorphous” and the Result ([7]; freebase, evaporation at RT, MeOH) was “Amorphous”. The Result ([7]; freebase, evaporation at RT, THF) was “Amorphous”.

With `C=CC(=O)N1CCN(c2nc(OC[C@@H]3CCCN3C)nc3c(F)c(-c4nc(N)cc(C)c4C(F)(F)F)c(Cl)cc23)[C@@H](C)C1.O=C(O)CCCCC(=O)O` [adipate] the Result [8] was “Compound A Form A”, the Result ([3]; adipate polymorph screening summary, Anti-solvent Addition) was “Compound A Form A, B, clear, gel” and the Result ([4]; adipate polymorph screening summary, Liquid Vapor Diffusion) was “Amorphous, clear, gel”. For the same molecule, the Result [9] was “Compound A Form A”, the Result ([5]; adipate polymorph screening summary, Slurry at RT/50° C.) was “Compound A Form A, gel, clear” and the Result ([6]; adipate polymorph screening summary) was “Compound A Form A, Compound A Form”. The Result ([7]; adipate polymorph screening summary, Slow Evaporation) was “Gel, clear”.

In the case of `C=CC(=O)N1CCN(c2nc(OC[C@@H]3CCCN3C)nc3c(F)c(-c4nc(N)cc(C)c4C(F)(F)F)c(Cl)cc23)[C@@H](C)C1.CS(=O)(=O)O` (atropisomer, axis not shown) [Compound E Form A], the “Moisture behaviour of the sample during XRPD test” value [10] is reported as “tended to absorb moisture and turn to liquid”.

From patent US12565485B2, “Solid forms of 1-((S)-4-((R)-7-(6-amino-4-methyl-3-(trifluoromethyl)pyridin-2-yl)-6-chloro-8-fluoro-2-(((s)-1-methylpyrrolidin-2-yl)methoxy)quinazolin-4-yl)-3-methylpiperazin-1-yl)prop-2-en-1-one” (Genentech, Inc., priority 2022, dated 2026)
